Patent US9023865B2, “Compounds that are ERK inhibitors” (Merck Sharp & Dohme Corp., priority 2011, dated 2015)

Biological target: Active Human ERK2 (hERK2) (Homo sapiens (Human), UniProt P28482)
Test: Active Human ERK2 (hERK2) Activity Assay (IMAP-FP)
Type: biochemical
Details: phosphorylated active hERK2, 30 μM ATP; average; read-out: ERK 2 Human average IC50
How it was run: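 Phosphorylation by activated human ERK2 (0.5 nM) at 30 μM ATP, peptide substrate 900 nM unlabeled with 80 nM labeled, proceeds 60 min. IMAP beads stop the reaction; after 60 min equilibration, product is measured by fluorescence polarization.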

Sequence of Active Human ERK2 (hERK2) (P28482 whole entry): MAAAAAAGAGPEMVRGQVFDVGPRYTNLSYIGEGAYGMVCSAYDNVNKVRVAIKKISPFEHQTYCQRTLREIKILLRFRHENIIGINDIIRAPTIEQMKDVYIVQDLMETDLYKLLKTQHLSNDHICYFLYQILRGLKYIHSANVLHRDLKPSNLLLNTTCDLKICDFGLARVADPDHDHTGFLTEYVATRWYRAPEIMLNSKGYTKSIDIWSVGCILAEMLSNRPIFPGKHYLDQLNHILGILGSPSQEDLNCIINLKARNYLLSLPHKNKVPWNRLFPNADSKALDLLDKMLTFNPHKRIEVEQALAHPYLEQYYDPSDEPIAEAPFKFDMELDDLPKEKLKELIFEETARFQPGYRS

IC50 [nM]	SMILES
22.8	CC(O)c1n[nH]c2cc(NC(=O)N[C@H](C)c3ccccc3)ncc12 (stereo partly drawn) [Example 618]
0.159	Cc1cc(-c2n[nH]c3cc(NC(=O)NCc4cccc(S(C)(=O)=O)c4)ncc23)ccn1 [Example 619]
138	CCOCc1n[nH]c2cc(NC(=O)N[C@H](C)c3ccccc3)ncc12 [Example 620, 1-[3-(ethoxymethyl)-1H-pyrazolo[4,3-c]pyridin-6-yl]-3-[(1R)-1-phenylethyl]urea]
1.29	Cc1cc(-c2n[nH]c3cc(NC(=O)NC[C@H](C)c4ccccc4)ncc23)ccn1 [Example 621]
0.789	Cc1cc(-c2n[nH]c3cc(NC(=O)NC[C@@H](C)c4ccccc4)ncc23)ccn1 [Example 622]
1.93	COCCNC(=O)Nc1cc2[nH]nc(-c3ccc(F)cc3)c2cn1 [Example 623, 1-[3-(4-Fluorophenyl)-1H-pyrazolo[4,3-c]pyridin-6-yl]-3-(2-methoxyethyl)urea]
4.38	COCCNC(=O)Nc1cc2[nH]nc(-c3ccc(C#N)cc3)c2cn1 [Example 624, 1-[3-(4-Cyanophenyl)-1H-pyrazolo[4,3-c]pyridin-6-yl]-3-(2-methoxyethyl)urea]
13.6	COCCNC(=O)Nc1cc2[nH]nc(-c3ccc4cn(C)nc4c3)c2cn1 [Example 625]
0.8	COCCNC(=O)Nc1cc2[nH]nc(-c3ccc4nn(C)cc4c3)c2cn1 [Example 626]
6.09	COCCNC(=O)Nc1cc2[nH]nc(-c3ccccc3)c2cn1 [Example 627]
1.5	COCCNC(=O)Nc1cc2[nH]nc(-c3ccnc(C4CC4)c3)c2cn1 [Example 629]
2.12	COCCNC(=O)Nc1cc2[nH]nc(-c3ccc(OC(C)C)nc3)c2cn1 [Example 630]
17.4	COCCNC(=O)Nc1cc2[nH]nc(-c3cc(C)nc(OC)c3)c2cn1 [Example 631]
1.3	CO[C@H](C)CNC(=O)Nc1cc2[nH]nc(-c3ccc(F)cc3)c2cn1 [Example 634]
0.873	CO[C@@H](C)CNC(=O)Nc1cc2[nH]nc(-c3ccc(F)cc3)c2cn1 [Example 635]
0.251	C[C@@H](NC(=O)Nc1cc2[nH]nc(-c3ccnc(F)c3)c2cn1)c1ccccc1 [Example 636]
8.99	C[C@@H](NC(=O)Nc1cc2[nH]nc(-c3ccn(C4COC4)n3)c2cn1)c1ccccc1 [Example 638]
0.535	C[C@@H](NC(=O)Nc1cc2[nH]nc(-c3cnn(CC(C)(C)O)c3)c2cn1)c1ccccc1 [Example 639]
3.6	C[C@@H](NC(=O)Nc1cc2[nH]nc(-c3cnoc3)c2cn1)c1ccccc1 [Example 640]
1100	COC(=O)C1CC1c1n[nH]c2cc(NC(=O)N[C@H](C)c3ccccc3)ncc12 (stereo partly drawn) [Example 641]
327	COC(=O)C1CC1c1n[nH]c2cc(NC(=O)N[C@H](C)c3ccccc3)ncc12 (stereo partly drawn) [Example 642]
1.33	COC(=O)C1CC1c1n[nH]c2cc(NC(=O)N[C@H](C)c3ccccc3)ncc12 (stereo partly drawn) [Example 643]
1.07	COC(=O)C1CC1c1n[nH]c2cc(NC(=O)N[C@H](C)c3ccccc3)ncc12 (stereo partly drawn) [Example 644]
0.621	C[C@@H](NC(=O)Nc1cc2[nH]nc(-c3ccnc(F)c3)c2cn1)c1ccc(F)cc1 [Example 645]
373	Cc1cc(-c2n[nH]c3cc(NC(=O)NC4CCCC(Oc5ccc(Cl)c(F)c5)C4)ncc23)ccn1 (stereo not drawn) [Example 646]

IC50 [nM]	SMILES
0.464	C[C@@H](NC(=O)Nc1cc2[nH]nc(-c3cnn(C4COC4)c3)c2cn1)c1ccccc1 [Example 647]
28.2	Cc1cc(-c2n[nH]c3cc(NC(=O)NC4CCCC(Oc5cccc(F)c5)C4)ncc23)ccn1 (stereo not drawn) [Example 648]
1.06	COc1cccc(F)c1CN1CCC[C@@H](NC(=O)Nc2cc3[nH]nc(-c4ccnc(F)c4)c3cn2)C1 [Example 649]
0.318	COc1ccc(-c2n[nH]c3cc(NC(=O)N[C@H](C)c4ccccc4)ncc23)cn1 [Example 650]
0.223	C[C@@H](NC(=O)Nc1cc2[nH]nc(-c3ccc4nn(C)cc4c3)c2cn1)c1ccccc1 [Example 651]
0.72	Cc1nc2ccc(-c3n[nH]c4cc(NC(=O)N[C@H](C)c5ccccc5)ncc34)cc2o1 [Example 652]
4.16	C[C@@H](NC(=O)Nc1cc2[nH]nc(C3CCCC3)c2cn1)c1ccccc1 [Example 653]
2.2	COc1cccc(F)c1CN1CCC[C@@H](NC(=O)Nc2cc3[nH]nc(-c4ccc(F)cc4)c3cn2)C1 [Example 654]
2.27	COc1cccc(F)c1CN1CCC[C@@H](NC(=O)Nc2cc3[nH]nc(-c4ccc(C#N)cc4)c3cn2)C1 [Example 655]
5.06	Cc1cc(-c2n[nH]c3cc(NC(=O)NC4CCCC(Oc5cccc(F)c5)C4)ncc23)ccn1 (stereo not drawn) [Example 656]
4.67	Cc1cc(-c2n[nH]c3cc(NC(=O)NC4CCCC(Oc5cccc(F)c5)C4)ncc23)ccn1 (stereo not drawn) [Example 657]
66.9	Cc1cc(-c2n[nH]c3cc(NC(=O)NC4CCCC(Oc5cccc(F)c5)C4)ncc23)ccn1 (stereo not drawn) [Example 658]
51.9	Cc1cc(-c2n[nH]c3cc(NC(=O)NC4CCCC(Oc5cccc(F)c5)C4)ncc23)ccn1 (stereo not drawn) [Example 659]
2.66	C[C@@H](NC(=O)Nc1cc2[nH]nc(C3CC3C(=O)O)c2cn1)c1ccccc1 (stereo partly drawn) [Example 660]
0.928	COc1cc(-c2n[nH]c3cc(NC(=O)N[C@H](C)c4ccccc4)ncc23)ccn1 [Example 661]
0.929	COc1cccc(F)c1CN1CCC[C@@H](NC(=O)Nc2cc3[nH]nc(-c4ccc5nn(C)cc5c4)c3cn2)C1 [Example 662]
9.13	C[C@@H](NC(=O)Nc1cc2[nH]nc(C3=CNCN=C3)c2cn1)c1ccc(F)cc1 [Example 663]
2.49	C[C@@H](NC(=O)Nc1cc2[nH]nc(-c3cncc(F)c3)c2cn1)c1ccc(F)cc1 [Example 664]
193	C[C@@H](NC(=O)Nc1cc2[nH]nc(C(C)(F)F)c2cn1)c1ccc(F)cc1 [Example 665]
259	CC(F)(F)c1n[nH]c2cc(NC(=O)NCc3ccccc3)ncc12 [Example 667]
647	CC(F)(F)c1n[nH]c2cc(NC(=O)NCc3ccc(F)cc3)ncc12 [Example 668]
21.6	C[C@@H](NC(=O)Nc1cc2[nH]nc(C(F)F)c2cn1)c1ccc(F)cc1 [Example 669]
13.6	C[C@@H](NC(=O)Nc1cc2[nH]nc(C(F)F)c2cn1)c1ccccc1 [Example 670]
2.33	C[C@@H](NC(=O)Nc1cc2[nH]nc(-c3cncnc3)c2cn1)c1ccc(F)cc1 [Example 671]
1.55	C[C@@H](NC(=O)Nc1cc2[nH]nc(-c3cccc(C#N)c3)c2cn1)c1ccccc1 [Example 672]

IC50 [nM]	SMILES
5.41	N#Cc1cccc(-c2n[nH]c3cc(NC(=O)NCc4ccc(F)cc4)ncc23)c1 [Example 673]
13.2	C[C@@H](NC(=O)Nc1cc2[nH]nc(-c3ccc(OC(F)(F)F)cc3)c2cn1)c1ccccc1 [Example 674]
89.2	O=C(NCc1ccc(F)cc1)Nc1cc2[nH]nc(-c3ccc(OC(F)(F)F)cc3)c2cn1 [Example 675]
0.94	COc1ccc(-c2n[nH]c3cc(NC(=O)N[C@H](C)c4ccccc4)ncc23)cc1 [Example 676]
3.67	COc1ccc(-c2n[nH]c3cc(NC(=O)NCc4ccc(F)cc4)ncc23)cc1 [Example 677]
765	C[C@@H](NC(=O)Nc1cc2[nH]nc(C(F)F)c2cn1)c1ccccn1 [Example 678]
7.7	Cc1nnc(-c2n[nH]c3cc(NC(=O)N[C@H](C)c4ccccc4)ncc23)o1 [Example 681]
32.4	Cc1cc(-c2n[nH]c3cc(NC(=O)N[C@H](C)c4ccccc4)ncc23)no1 [Example 682]
4.36	COC[C@@H](NC(=O)Nc1cc2[nH]nc(-c3cc(C)on3)c2cn1)c1ccccc1 [Example 683]
26.8	CCCC(=O)c1n[nH]c2cc(NC(=O)N[C@H](COC)c3ccccc3)ncc12 [Example 684]
23.8	COC[C@@H](NC(=O)Nc1cc2[nH]nc(C3=NOC(C)C3)c2cn1)c1ccccc1 (stereo partly drawn) [Example 686]
56	CC1CC(c2n[nH]c3cc(NC(=O)N[C@H](C)c4ccccc4)ncc23)=NO1 (stereo partly drawn) [Example 687]
5.39	COC[C@@H](NC(=O)Nc1cc2[nH]nc(-c3cc(C)on3)c2cn1)c1ccc(F)cc1 [Example 688]
5.15	Cc1cc(-c2n[nH]c3cc(NC(=O)NC4CCCOc5ccccc54)ncc23)no1 (stereo not drawn) [Example 689]
240	Cc1cc(-c2n[nH]c3cc(NC(=O)NC4CCCOc5ccccc54)ncc23)no1 (stereo not drawn) [Example 690]
12	CCOC[C@@H](NC(=O)Nc1cc2[nH]nc(C(F)F)c2cn1)c1ccccc1 [Example 692]
21.4	O=C(Nc1cc2[nH]nc(C(F)F)c2cn1)N[C@H](COCC1CC1)c1ccccc1 [Example 693]
6.03	COCCOC[C@@H](NC(=O)Nc1cc2[nH]nc(C(F)F)c2cn1)c1ccccc1 [Example 694]
155	Cc1cccc(CNC(=O)Nc2cc3[nH]nc(C(F)F)c3cn2)n1 [Example 695]
175	O=C(Nc1cc2[nH]nc(C(F)F)c2cn1)NC1Cc2ccccc2C1O (stereo not drawn) [Example 696]
0.221	COC[C@@H](NC(=O)Nc1cc2[nH]nc(-c3ccc4nnn(C)c4c3)c2cn1)c1ccccc1 [Example 697]
6.78	CCOC[C@@H](NC(=O)Nc1cc2[nH]nc(-c3cc(C)on3)c2cn1)c1ccccc1 [Example 698]
23.5	Cc1cc(-c2n[nH]c3cc(NC(=O)N[C@H](COCC4CC4)c4ccccc4)ncc23)no1 [Example 699]
11.9	COCCOC[C@@H](NC(=O)Nc1cc2[nH]nc(-c3cc(C)on3)c2cn1)c1ccccc1 [Example 700]
4.57	Cc1cc(-c2n[nH]c3cc(NC(=O)N[C@H](COCC(F)F)c4ccccc4)ncc23)no1 [Example 701]
